# Measurements published in patent US6914045B2, “Glycopeptide antibiotics” (Wyeth Holdings Corporation, priority 2001, dated 2005).
# Legend:
# Experiment in all cases: in vitro antibacterial evaluation, MIC by broth dilution
# Assay type in all cases: cell-based
# Escherichia coli = details: 18 hours at 35° C.
# Method in brief: (§1)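 Broth dilution per NCCLS standard M7-A2 in Muller-Hinton II […], with an inoculum of 5×10^5 CFU/mL and antibiotic spanning 64-0.06 μg/mL. The MIC is the lowest concentration that inhibits growth of the organism.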
# Staphylococcus sp. = details: broth dilution, 18 hours at 35° C.
# Method in brief: as §1
# Streptococcus sp. = details: broth dilution, 18 hours at 35° C.
# Method in brief: as §1
# Enterococcus sp. = details: broth dilution, 18 hours at 35° C.
# Method in brief: as §1
# [1] = Enterococcus faecalis (ATCC 29212)
# [2] = Enterococcus faecalis (GC 4553)
# [3] = Enterococcus faecalis (GC 4554)
smiles,measurement,setting,value
"CCCCCCCC1OCC2OC(OC3C(CO)OC(Oc4ccc(CC5NC(=O)C(C(C)c6ccccc6)NC(=O)CNC(=O)C(CO)NC(=O)C(C(O)C6CNC(=N)N6C6OC(CO)C(O)C(O)C6O)NC(=O)C(C(O)C6CNC(=N)N6)NC5=O)cc4)C(O)C3O)C(O)C(O)C2O1 (stereo not drawn) [Example 109, Cyclo[glycyl-β-methylphenylalanyl-O-[4-O-(4,6-O-octylidenehexopyranosyl)hexopyranosyl]-tyrosyl-3-(2-iminoimidazolidin-4-yl)seryl-3-(3-hexopyranosyl-2-iminoimidazolidin-4-yl)-serylseryl]]",MIC Escherichia coli (ATCC 25922),Escherichia coli; strain ATCC 25922,16 µg/mL
same,MIC Coagulase Negative Staphylococcus (GC 4547),Staphylococcus sp.,1 µg/mL
same,MIC Coagulase Negative Staphylococcus (GC 4548),Staphylococcus sp.,<0.5 µg/mL
same,MIC Coagulase Negative Staphylococcus (GC 4549),Staphylococcus sp.,1 µg/mL
same,MIC Coagulase Negative Staphylococcus (GC 4551),Staphylococcus sp.,1 µg/mL
same,MIC Coagulase Negative Staphylococcus (ID-3941),Staphylococcus sp.,1 µg/mL
same,MIC Staphylococcus aureus (ATCC 29213),Staphylococcus sp.,1 µg/mL
same,MIC Staphylococcus aureus (GC 1131),Staphylococcus sp.,1 µg/mL
same,MIC Staphylococcus aureus (GC 4541),Staphylococcus sp.,1 µg/mL
same,MIC Staphylococcus aureus (GC 4542),Staphylococcus sp.,1 µg/mL
same,MIC Staphylococcus aureus (GC 4544),Staphylococcus sp.,1 µg/mL
same,MIC Staphylococcus aureus (GC 4545),Staphylococcus sp.,1 µg/mL
same,MIC Staphylococcus aureus-SMITH (GC 4543),Staphylococcus sp.,1 µg/mL
same,MIC Staphylococcus haemolyticus (GC 4546),Staphylococcus sp.,1 µg/mL
same,MIC Staphylococcus aureus (GC 1131),"Staphylococcus sp.; inoculum 5×10^5 CFU/mL, strain GC 1131",1 µg/mL
same,MIC Staphylococcus aureus (ATCC 29213),Staphylococcus sp.; strain ATCC 29213,1 µg/mL
same,MIC Staphylococcus aureus (GC 4541),Staphylococcus sp.; strain GC 4541,1 µg/mL
same,MIC Staphylococcus aureus (GC 4542),Staphylococcus sp.; strain GC 4542,1 µg/mL
same,MIC Staphylococcus aureus (GC 4544),Staphylococcus sp.; strain GC 4544,1 µg/mL
same,MIC Staphylococcus aureus (GC 4545),Staphylococcus sp.; strain GC 4545,1 µg/mL
same,MIC Staphylococcus haemolyticus (GC 4546),Staphylococcus sp.; strain GC 4546,1 µg/mL
same,MIC Coagulase Negative Staphylococcus (GC 4547),Staphylococcus sp.; strain GC 4547,1 µg/mL
same,MIC Coagulase Negative Staphylococcus (GC 4548),Staphylococcus sp.; strain GC 4548,<0.5 µg/mL
same,MIC Coagulase Negative Staphylococcus (GC 4549),Staphylococcus sp.; strain GC 4549,1 µg/mL
same,MIC Coagulase Negative Staphylococcus (GC 4551),Staphylococcus sp.; strain GC 4551,1 µg/mL
same,MIC Coagulase Negative Staphylococcus (ID-3941),Staphylococcus sp.; strain ID-3941,1 µg/mL
same,MIC Staphylococcus aureus-SMITH (GC 4543),Staphylococcus sp.; strain SMITH GC 4543,1 µg/mL
same,MIC Streptococcus agalactiae (GC 4564),Streptococcus sp.; Streptococcus agalactiae (GC 4564),<0.5 µg/mL
same,MIC Streptococcus pneumoniae (GC 4565),Streptococcus sp.; Streptococcus pneumoniae (GC 4565),<0.5 µg/mL
same,MIC Streptococcus pyogenes (ID-3187),Streptococcus sp.; Streptococcus pyogenes (ID-3187),<0.5 µg/mL
same,MIC Streptococcus agalactiae (GC 4564),Streptococcus sp.; strain GC 4564,<0.5 µg/mL
same,MIC Streptococcus pneumoniae (GC 4565),Streptococcus sp.; strain GC 4565,<0.5 µg/mL
same,MIC Streptococcus pyogenes (ID-3187),Streptococcus sp.; strain ID-3187,<0.5 µg/mL
same,MIC Enterococcus avium (GC 4558),Enterococcus sp.; Enterococcus avium (GC 4558),2 µg/mL
same,MIC Enterococcus faecalis (ATCC 29212),Enterococcus sp.; [1],2 µg/mL
same,MIC Enterococcus faecalis (GC 2242),Enterococcus sp.; Enterococcus faecalis (GC 2242),2 µg/mL
same,MIC Enterococcus faecalis (GC 4552),Enterococcus sp.; Enterococcus faecalis (GC 4552),2 µg/mL
same,MIC Enterococcus faecalis (GC 4553),Enterococcus sp.; [2],2 µg/mL
same,MIC Enterococcus faecalis (GC 4554),Enterococcus sp.; [3],2 µg/mL
same,MIC Enterococcus faecium (GC 2243),Enterococcus sp.; Enterococcus faecium (GC 2243),1 µg/mL
same,MIC Enterococcus faecium (GC 4556),Enterococcus sp.; Enterococcus faecium (GC 4556),2 µg/mL
same,MIC Enterococcus faecium (GC 4557),Enterococcus sp.; Enterococcus faecium (GC 4557),1 µg/mL
same,MIC Enterococcus faecalis (ATCC 29212),Enterococcus sp.; strain ATCC 29212,2 µg/mL
same,MIC Enterococcus faecalis (GC 2242),Enterococcus sp.; strain GC 2242,2 µg/mL
same,MIC Enterococcus faecium (GC 2243),Enterococcus sp.; strain GC 2243,1 µg/mL
same,MIC Enterococcus faecalis (GC 4552),Enterococcus sp.; strain GC 4552,2 µg/mL
same,MIC Enterococcus faecalis (GC 4553),Enterococcus sp.; strain GC 4553,2 µg/mL
same,MIC Enterococcus faecalis (GC 4554),Enterococcus sp.; strain GC 4554,2 µg/mL
same,MIC Enterococcus faecium (GC 4556),Enterococcus sp.; strain GC 4556,2 µg/mL
same,MIC Enterococcus faecium (GC 4557),Enterococcus sp.; strain GC 4557,1 µg/mL
same,MIC Enterococcus avium (GC 4558),Enterococcus sp.; strain GC 4558,2 µg/mL
"CC(C)CC(=O)OC1C(O)C(CO)OC(OC2C(CO)OC(Oc3ccc(CC4NC(=O)C(C(C)c5cccs5)NC(=O)CNC(=O)C(CO)NC(=O)C(C(O)C5CNC(=N)N5C5OC(CO)C(O)C(O)C5O)NC(=O)C(C(O)C5CNC(=N)N5)NC4=O)cc3)C(O)C2O)C1O (stereo not drawn) [Example 265b, Cyclo[3-(2-thienyl)-2-aminobutanoyl-O-[4-O-[3-O-(3-methylbutanoyl)hexopyranosyl]hexoipyranosyl]tyrosyl-3-(2-iminoimidazolidin-4-yl)seryl-3-(3-hexolpyranosyl-2-iminoimidazolidin-4-yl)serylserylglycyl]]",MIC Escherichia coli (ATCC 25922),Escherichia coli; Escherichia coli (ATCC 25922),>64 µg/mL
same,MIC Escherichia coli (GC 4559),Escherichia coli; Escherichia coli (GC 4559),64 µg/mL
same,MIC Escherichia coli (GC 4560),Escherichia coli; Escherichia coli (GC 4560),4 µg/mL
same,MIC Coagulase Negative Staphylococcus (GC 4547),Staphylococcus sp.,8 µg/mL
same,MIC Coagulase Negative Staphylococcus (GC 4548),Staphylococcus sp.,4 µg/mL
same,MIC Coagulase Negative Staphylococcus (GC 4549),Staphylococcus sp.,4 µg/mL
same,MIC Coagulase Negative Staphylococcus (GC 4551),Staphylococcus sp.,8 µg/mL
same,MIC Staphylococcus aureus (ATCC 29213),Staphylococcus sp.,16 µg/mL
same,MIC Staphylococcus aureus (GC 1131),Staphylococcus sp.,32 µg/mL
same,MIC Staphylococcus aureus (GC 4541),Staphylococcus sp.,8 µg/mL
same,MIC Staphylococcus aureus (GC 4542),Staphylococcus sp.,8 µg/mL
same,MIC Staphylococcus aureus (GC 4544),Staphylococcus sp.,8 µg/mL
same,MIC Staphylococcus aureus (GC 4545),Staphylococcus sp.,8 µg/mL
same,MIC Staphylococcus aureus-SMITH (GC 4543),Staphylococcus sp.,8 µg/mL
same,MIC Staphylococcus haemolyticus (GC 4546),Staphylococcus sp.,8 µg/mL
same,MIC Staphylococcus aureus (ATCC 29213),Staphylococcus sp.; strain ATCC 29213,16 µg/mL
same,MIC Staphylococcus aureus (GC 1131),Staphylococcus sp.; strain GC 1131,32 µg/mL
same,MIC Staphylococcus aureus (GC 4541),Staphylococcus sp.; strain GC 4541,8 µg/mL
same,MIC Staphylococcus aureus (GC 4542),Staphylococcus sp.; strain GC 4542,8 µg/mL
same,MIC Staphylococcus aureus (GC 4544),Staphylococcus sp.; strain GC 4544,8 µg/mL
same,MIC Staphylococcus aureus (GC 4545),Staphylococcus sp.; strain GC 4545,8 µg/mL
same,MIC Staphylococcus haemolyticus (GC 4546),Staphylococcus sp.; strain GC 4546,8 µg/mL
same,MIC Coagulase Negative Staphylococcus (GC 4547),Staphylococcus sp.; strain GC 4547,8 µg/mL
same,MIC Coagulase Negative Staphylococcus (GC 4548),Staphylococcus sp.; strain GC 4548,4 µg/mL
same,MIC Coagulase Negative Staphylococcus (GC 4549),Staphylococcus sp.; strain GC 4549,4 µg/mL
same,MIC Coagulase Negative Staphylococcus (GC 4551),Staphylococcus sp.; strain GC 4551,8 µg/mL
same,MIC Staphylococcus aureus-SMITH (GC 4543),Staphylococcus sp.; strain SMITH GC 4543,8 µg/mL
same,MIC Streptococcus agalactiae (GC 4564),Streptococcus sp.; strain GC 4564,8 µg/mL
same,MIC Streptococcus pyogenes (ID-3187),Streptococcus sp.; strain ID-3187,4 µg/mL
same,MIC Enterococcus avium (GC 4558),Enterococcus sp.; Enterococcus avium (GC 4558),64 µg/mL
same,MIC Enterococcus faecalis (ATCC 29212),Enterococcus sp.; [1],64 µg/mL
same,MIC Enterococcus faecalis (GC 4553),Enterococcus sp.; [2],64 µg/mL
same,MIC Enterococcus faecalis (GC 4554),Enterococcus sp.; [3],>64 µg/mL
same,MIC Enterococcus faecium (GC 2243),Enterococcus sp.; Enterococcus faecium (GC 2243),64 µg/mL
same,MIC Enterococcus faecium (GC 4556),Enterococcus sp.; Enterococcus faecium (GC 4556),64 µg/mL
same,MIC Enterococcus faecium (GC 4557),Enterococcus sp.; Enterococcus faecium (GC 4557),8 µg/mL
same,MIC Enterococcus faecalis (ATCC 29212),Enterococcus sp.; strain ATCC 29212,64 µg/mL
same,MIC Enterococcus faecalis (GC 2242),Enterococcus sp.; strain GC 2242,64 µg/mL
same,MIC Enterococcus faecium (GC 2243),Enterococcus sp.; strain GC 2243,64 µg/mL
same,MIC Enterococcus faecalis (GC 4552),Enterococcus sp.; strain GC 4552,64 µg/mL
same,MIC Enterococcus faecalis (GC 4553),Enterococcus sp.; strain GC 4553,64 µg/mL
same,MIC Enterococcus faecalis (GC 4554),Enterococcus sp.; strain GC 4554,>64 µg/mL
same,MIC Enterococcus faecium (GC 4556),Enterococcus sp.; strain GC 4556,64 µg/mL
same,MIC Enterococcus faecium (GC 4557),Enterococcus sp.; strain GC 4557,8 µg/mL
same,MIC Enterococcus avium (GC 4558),Enterococcus sp.; strain GC 4558,64 µg/mL
